Experimental data published in ChEMBL document CHEMBL1201862, “PubChem BioAssay data set” (2004).
The source made the active and inactive calls.

Assays:
[1] = target: Peroxisome proliferator-activated receptor gamma/Nuclear receptor coactivator 2 (Homo sapiens, UniProt P37231); test: (§1) TR-FRET dose response biochemical High Throughput Screening assay for agonists of the steroid receptor coactivator 2 (SRC-2) recruitment by the peroxisome proliferator-activated receptor gamma (PPAR gamma): non-selective agonists. [Related pubchem assays: 1297, 1032 ]; assay type: functional
[2] = target: Peroxisome proliferator-activated receptor gamma/Nuclear receptor coactivator 1 (Homo sapiens, UniProt P37231); test: as §1, with “1 (SRC-1)” for “2 (SRC-2)”, “assays (depositor defined):AID1300, AID1808, AID504735, AID631]” for “assays: 1297, 1032 ]”; assay type: protein assay
[3] = target: Peroxisome proliferator-activated receptor gamma/Nuclear receptor coactivator 3 (Homo sapiens, UniProt P37231); test: as §1, with “3 (SRC-3)” for “2 (SRC-2)”, “1301 (Confirmation screen.), 1048 (Primary screen.)]” for “1297, 1032 ]”; assay type: functional
[4] = cytotoxicity in HPDE-C7 cells, cell-based, fluorescence, HTS (AID 430); assay type: functional; conditions: Homo sapiens
H9c2 = test: cells; assay type: functional, cell-based; conditions: Rattus norvegicus, H9c2, Myocardium;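 note: confirmatory concentration-response retest of ultra-high-throughput screening hits for modulation of myocardial damage; cell death induced by hydrogen peroxide oxidative stress; compound pretreatment for 60 min then peroxide exposure for 2 h; potency is for protecting the cells against peroxide damage rather than for killing them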
[5] = growth suppression of beta-catenin-knockout colon cells, dose response, cell-based, HCT116, human colon tumor (AID 1045); assay type: functional;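 note: HCT116 colon tumor cells with beta catenin knocked out; cells exposed to compound for 60 hours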
[6] = growth suppression of PTEN-null colon cells, dose response, cell-based, HCT116 PTEN knockout (AID 1047); assay type: functional;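 note: HCT116 colon tumor cells with PTEN knocked out; cells exposed to compound for 60 hours before readout; potency for loss of cell viability measured by luminescence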
[7] = cytotoxicity in KRAS-transformed pancreatic duct cells, primary screen, cell-based, fluorescence, HTS (AID 431); assay type: functional; conditions: Homo sapiens;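 note: cell line used: HPDE-C7K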
[8] = cytotoxicity toward NIH3T3 fibroblasts, dose response, counter-screen, cell-based, ATP luminescence, mouse fibroblasts (AID 2010); assay type: functional;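 note: cells exposed to compound for about 90 hours before reading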
cells [9] = test: cells
[10] = target: T1, Short transient receptor potential channel 4 (Mus musculus, UniProt Q9QUQ5); test: mouse TRPC4 channel inhibitors, dose response, cell-based, HEK293 TRPC4/mu-opioid, Fluo-4 calcium (AID 434942); assay type: functional;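 note: potency of inhibitors blocking the TRPC4 calcium response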
T1 sequence (Q9QUQ5 whole entry): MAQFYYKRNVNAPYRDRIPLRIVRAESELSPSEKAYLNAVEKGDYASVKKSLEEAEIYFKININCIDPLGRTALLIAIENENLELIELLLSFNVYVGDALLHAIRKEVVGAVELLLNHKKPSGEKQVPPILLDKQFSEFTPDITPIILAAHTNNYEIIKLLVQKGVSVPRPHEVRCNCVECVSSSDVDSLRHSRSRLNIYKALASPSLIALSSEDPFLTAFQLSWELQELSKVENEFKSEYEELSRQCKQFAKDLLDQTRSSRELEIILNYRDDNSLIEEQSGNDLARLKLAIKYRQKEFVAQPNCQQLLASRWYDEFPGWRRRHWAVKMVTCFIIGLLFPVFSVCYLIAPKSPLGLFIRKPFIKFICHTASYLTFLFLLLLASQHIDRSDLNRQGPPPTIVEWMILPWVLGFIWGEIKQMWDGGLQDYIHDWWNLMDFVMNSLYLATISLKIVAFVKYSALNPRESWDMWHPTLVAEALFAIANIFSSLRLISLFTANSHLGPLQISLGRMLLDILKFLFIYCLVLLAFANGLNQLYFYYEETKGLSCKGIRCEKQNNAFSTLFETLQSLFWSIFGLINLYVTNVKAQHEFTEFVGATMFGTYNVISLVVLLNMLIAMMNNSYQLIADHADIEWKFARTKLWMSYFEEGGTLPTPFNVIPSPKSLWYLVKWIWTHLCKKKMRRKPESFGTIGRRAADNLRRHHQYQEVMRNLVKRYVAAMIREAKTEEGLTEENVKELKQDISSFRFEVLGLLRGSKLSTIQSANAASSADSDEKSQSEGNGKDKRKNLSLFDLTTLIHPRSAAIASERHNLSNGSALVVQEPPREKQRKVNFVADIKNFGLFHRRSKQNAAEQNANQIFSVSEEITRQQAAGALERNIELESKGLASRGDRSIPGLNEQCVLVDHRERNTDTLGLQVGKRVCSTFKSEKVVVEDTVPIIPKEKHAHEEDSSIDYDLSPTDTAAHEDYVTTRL

[11] = inhibitors of intracellular T. cruzi replication, confirmation, NIH3T3 host cells, beta-gal luminescence (AID 2044); assay type: functional, cell-based;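 note: intracellular parasites grown in NIH/3T3 mouse fibroblasts as host cells; luminescent beta-galactosidase reporter signal from transgenic T. cruzi replicating inside host cells; inhibitors lower the luminescence signal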
[12] = target: Induced myeloid leukemia cell differentiation protein Mcl-1 (Homo sapiens, UniProt Q07820); assay type: functional
[13] = target: Glyceraldehyde-3-phosphate dehydrogenase (Homo sapiens, UniProt P04406)
cells [14] = test: cells; remark: listed apart in the source
[15] = HEp-2 cell cytotoxicity, dose response, cytotoxicity control for RSV inhibitor project, HTS (AID 2410); assay type: functional; conditions: human respiratory syncytial virus
[16] = target: T2, Polyadenylate-binding protein 1 (Homo sapiens, UniProt P11940); test: PABP1 MLLE–PAM2 binding inhibitor potency, dose response, biochemical, fluorescence polarization, FITC-PAM2 peptide (AID 602259); assay type: functional; conditions: read-out: IC50_Mean
Estrogen receptor beta [17] = target: T3, Estrogen receptor beta (Homo sapiens, UniProt Q92731); test: ERβ–SRC-3 coactivator interaction inhibitors, confirmation, orthogonal assay, biochemical, ELISA, streptavidin-HRP readout (AID 1060)
Estrogen receptor beta [18] = target: T3, Estrogen receptor beta
[19] = target: T2, Polyadenylate-binding protein 1; test: PABP1 MLLE–PAM2 interaction inhibitors, dose response, miRNA deadenylation inhibitor project, biochemical, fluorescence polarization, Cy5-PAM2 peptide, secondary (AID 602260); assay type: functional; conditions: read-out: IC50_Mean
[20] = target: FAD-linked sulfhydryl oxidase ALR (Homo sapiens, UniProt P55789); test: inhibitors of human ALR sulfhydryl oxidase, dose response, biochemical, H2O2 detection, luminescence, cherry-pick (AID 493248)
Estrogen receptor = target: T4, Estrogen receptor (Homo sapiens, UniProt P03372);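 note: potency for inhibiting coactivator peptide recruitment to the receptor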
T4 sequence (P03372 whole entry): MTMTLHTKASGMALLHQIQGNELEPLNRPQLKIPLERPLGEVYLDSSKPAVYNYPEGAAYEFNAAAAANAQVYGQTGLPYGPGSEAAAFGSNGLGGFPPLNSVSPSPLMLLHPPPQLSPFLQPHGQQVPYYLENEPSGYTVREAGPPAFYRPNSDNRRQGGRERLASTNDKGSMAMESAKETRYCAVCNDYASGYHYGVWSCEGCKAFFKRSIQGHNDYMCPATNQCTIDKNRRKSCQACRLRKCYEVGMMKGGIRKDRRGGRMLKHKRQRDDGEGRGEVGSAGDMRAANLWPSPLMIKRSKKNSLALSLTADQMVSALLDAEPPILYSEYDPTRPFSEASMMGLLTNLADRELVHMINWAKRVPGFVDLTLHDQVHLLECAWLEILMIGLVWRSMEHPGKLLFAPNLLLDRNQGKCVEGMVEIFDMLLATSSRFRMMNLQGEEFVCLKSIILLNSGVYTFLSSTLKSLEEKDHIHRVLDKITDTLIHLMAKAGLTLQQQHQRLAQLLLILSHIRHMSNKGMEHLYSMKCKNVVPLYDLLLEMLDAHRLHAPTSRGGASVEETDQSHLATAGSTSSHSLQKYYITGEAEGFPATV

cells [21] = assay type: functional
[22] = THP-1 cell cytotoxicity, dose response, cytotoxicity control for non-replicating M. tuberculosis project (AID 489025); assay type: functional
Genome polyprotein = Genome polyprotein (dengue virus type 2, UniProt P29990); test: Dengue-2 NS5 methyltransferase inhibitors, primary screen, biochemical, confirmation dose response (AID 588689); assay type: functional
Large T antigen = Large T antigen (Simian virus 40, UniProt P03070); assay type: functional, Betapolyomavirus macacae;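 note: Confirmatory-stage PubChem screen for compounds that inhibit SV40 T antigen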
[23] = target: T5, RNA-binding protein pos-1 (Caenorhabditis elegans, UniProt G5EF15); test: inhibitors of POS-1/mex-3 RNA binding, dose response, biochemical, fluorescence polarization (AID 1964);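 note: purified POS-1 fused to maltose binding protein made in E. coli; potency of compounds blocking POS-1 binding to fluorescent RNA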
T5 sequence (G5EF15 whole entry): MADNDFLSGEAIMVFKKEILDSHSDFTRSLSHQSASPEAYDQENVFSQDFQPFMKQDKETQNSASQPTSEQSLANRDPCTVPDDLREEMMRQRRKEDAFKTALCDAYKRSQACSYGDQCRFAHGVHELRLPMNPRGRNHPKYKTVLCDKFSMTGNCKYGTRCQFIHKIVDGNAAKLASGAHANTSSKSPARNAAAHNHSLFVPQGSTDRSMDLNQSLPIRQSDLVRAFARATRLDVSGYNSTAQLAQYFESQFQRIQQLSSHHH

[24] = target: T6, Zinc finger protein mex-5 (Caenorhabditis elegans, UniProt Q9XUB2); test: MEX-5/TCR-2 RNA interaction inhibitors, dose response, biochemical, C. elegans, fluorescence polarization (AID 1960)
T6 sequence (Q9XUB2 whole entry): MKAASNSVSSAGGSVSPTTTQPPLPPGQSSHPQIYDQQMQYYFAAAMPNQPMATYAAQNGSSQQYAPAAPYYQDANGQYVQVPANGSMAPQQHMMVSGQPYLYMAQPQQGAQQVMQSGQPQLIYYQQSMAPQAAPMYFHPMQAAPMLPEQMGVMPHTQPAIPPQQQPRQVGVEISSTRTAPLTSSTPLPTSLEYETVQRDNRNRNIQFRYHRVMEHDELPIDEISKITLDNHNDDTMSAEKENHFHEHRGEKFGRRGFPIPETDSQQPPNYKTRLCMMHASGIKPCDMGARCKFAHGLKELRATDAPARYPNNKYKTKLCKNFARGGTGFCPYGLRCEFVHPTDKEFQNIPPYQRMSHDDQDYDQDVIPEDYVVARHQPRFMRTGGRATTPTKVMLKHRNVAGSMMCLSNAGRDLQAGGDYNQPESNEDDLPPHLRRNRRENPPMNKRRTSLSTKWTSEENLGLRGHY

Peroxisome proliferator-activated receptor gamma/Nuclear receptor coactivator 3, sequence (P37231 whole entry): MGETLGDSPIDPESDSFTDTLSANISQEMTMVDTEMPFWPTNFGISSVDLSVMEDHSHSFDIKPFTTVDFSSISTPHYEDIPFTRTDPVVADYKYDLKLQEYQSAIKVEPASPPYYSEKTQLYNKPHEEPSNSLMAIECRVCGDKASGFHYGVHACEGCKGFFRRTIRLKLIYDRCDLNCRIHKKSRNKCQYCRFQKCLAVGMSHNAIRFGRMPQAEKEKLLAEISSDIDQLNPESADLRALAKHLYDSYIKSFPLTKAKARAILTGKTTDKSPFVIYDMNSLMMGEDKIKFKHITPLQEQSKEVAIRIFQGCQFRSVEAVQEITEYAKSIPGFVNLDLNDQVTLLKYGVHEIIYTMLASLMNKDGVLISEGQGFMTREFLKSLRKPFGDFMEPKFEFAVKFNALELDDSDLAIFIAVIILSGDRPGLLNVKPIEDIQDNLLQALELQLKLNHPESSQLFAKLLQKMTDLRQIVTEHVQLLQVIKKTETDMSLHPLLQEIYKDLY
Peroxisome proliferator-activated receptor gamma/Nuclear receptor coactivator 3, sequence (Q9Y6Q9 whole entry, further chain): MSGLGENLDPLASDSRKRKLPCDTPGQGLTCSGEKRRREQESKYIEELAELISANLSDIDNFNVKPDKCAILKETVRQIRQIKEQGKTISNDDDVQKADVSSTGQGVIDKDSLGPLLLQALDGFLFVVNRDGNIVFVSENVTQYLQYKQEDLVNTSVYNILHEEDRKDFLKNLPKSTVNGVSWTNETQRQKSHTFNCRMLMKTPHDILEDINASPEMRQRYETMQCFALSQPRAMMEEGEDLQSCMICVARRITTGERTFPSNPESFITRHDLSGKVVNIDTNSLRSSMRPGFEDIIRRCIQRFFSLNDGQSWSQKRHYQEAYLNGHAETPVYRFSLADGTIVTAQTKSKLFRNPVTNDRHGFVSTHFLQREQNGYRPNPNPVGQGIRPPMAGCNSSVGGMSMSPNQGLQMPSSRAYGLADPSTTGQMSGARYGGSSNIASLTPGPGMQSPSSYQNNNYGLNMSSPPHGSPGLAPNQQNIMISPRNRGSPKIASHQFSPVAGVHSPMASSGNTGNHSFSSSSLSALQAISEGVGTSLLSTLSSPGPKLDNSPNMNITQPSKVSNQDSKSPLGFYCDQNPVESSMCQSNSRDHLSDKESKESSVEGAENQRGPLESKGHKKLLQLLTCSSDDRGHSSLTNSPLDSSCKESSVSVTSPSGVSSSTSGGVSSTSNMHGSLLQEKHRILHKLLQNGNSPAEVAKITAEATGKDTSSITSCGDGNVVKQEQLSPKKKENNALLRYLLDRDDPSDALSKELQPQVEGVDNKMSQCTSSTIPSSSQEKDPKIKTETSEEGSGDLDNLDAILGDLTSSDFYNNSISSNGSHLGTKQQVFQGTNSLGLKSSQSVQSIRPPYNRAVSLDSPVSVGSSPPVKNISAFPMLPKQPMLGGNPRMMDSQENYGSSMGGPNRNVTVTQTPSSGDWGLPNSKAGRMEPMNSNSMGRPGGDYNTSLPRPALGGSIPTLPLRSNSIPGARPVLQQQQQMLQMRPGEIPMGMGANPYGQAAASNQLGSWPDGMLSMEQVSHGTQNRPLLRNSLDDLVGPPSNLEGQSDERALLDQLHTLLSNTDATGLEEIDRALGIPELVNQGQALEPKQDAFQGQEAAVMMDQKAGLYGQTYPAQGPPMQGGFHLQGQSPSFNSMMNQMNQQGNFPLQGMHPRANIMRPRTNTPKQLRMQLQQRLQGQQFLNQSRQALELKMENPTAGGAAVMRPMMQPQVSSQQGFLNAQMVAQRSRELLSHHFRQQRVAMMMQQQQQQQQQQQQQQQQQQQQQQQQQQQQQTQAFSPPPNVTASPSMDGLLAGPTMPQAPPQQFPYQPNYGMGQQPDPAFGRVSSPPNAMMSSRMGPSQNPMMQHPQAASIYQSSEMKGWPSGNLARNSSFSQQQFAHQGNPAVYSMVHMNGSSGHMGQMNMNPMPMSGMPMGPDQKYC
Peroxisome proliferator-activated receptor gamma/Nuclear receptor coactivator 2, sequence (P37231 whole entry): as the sequence (P37231 whole entry) above
Peroxisome proliferator-activated receptor gamma/Nuclear receptor coactivator 2, sequence (Q15596 whole entry, further chain): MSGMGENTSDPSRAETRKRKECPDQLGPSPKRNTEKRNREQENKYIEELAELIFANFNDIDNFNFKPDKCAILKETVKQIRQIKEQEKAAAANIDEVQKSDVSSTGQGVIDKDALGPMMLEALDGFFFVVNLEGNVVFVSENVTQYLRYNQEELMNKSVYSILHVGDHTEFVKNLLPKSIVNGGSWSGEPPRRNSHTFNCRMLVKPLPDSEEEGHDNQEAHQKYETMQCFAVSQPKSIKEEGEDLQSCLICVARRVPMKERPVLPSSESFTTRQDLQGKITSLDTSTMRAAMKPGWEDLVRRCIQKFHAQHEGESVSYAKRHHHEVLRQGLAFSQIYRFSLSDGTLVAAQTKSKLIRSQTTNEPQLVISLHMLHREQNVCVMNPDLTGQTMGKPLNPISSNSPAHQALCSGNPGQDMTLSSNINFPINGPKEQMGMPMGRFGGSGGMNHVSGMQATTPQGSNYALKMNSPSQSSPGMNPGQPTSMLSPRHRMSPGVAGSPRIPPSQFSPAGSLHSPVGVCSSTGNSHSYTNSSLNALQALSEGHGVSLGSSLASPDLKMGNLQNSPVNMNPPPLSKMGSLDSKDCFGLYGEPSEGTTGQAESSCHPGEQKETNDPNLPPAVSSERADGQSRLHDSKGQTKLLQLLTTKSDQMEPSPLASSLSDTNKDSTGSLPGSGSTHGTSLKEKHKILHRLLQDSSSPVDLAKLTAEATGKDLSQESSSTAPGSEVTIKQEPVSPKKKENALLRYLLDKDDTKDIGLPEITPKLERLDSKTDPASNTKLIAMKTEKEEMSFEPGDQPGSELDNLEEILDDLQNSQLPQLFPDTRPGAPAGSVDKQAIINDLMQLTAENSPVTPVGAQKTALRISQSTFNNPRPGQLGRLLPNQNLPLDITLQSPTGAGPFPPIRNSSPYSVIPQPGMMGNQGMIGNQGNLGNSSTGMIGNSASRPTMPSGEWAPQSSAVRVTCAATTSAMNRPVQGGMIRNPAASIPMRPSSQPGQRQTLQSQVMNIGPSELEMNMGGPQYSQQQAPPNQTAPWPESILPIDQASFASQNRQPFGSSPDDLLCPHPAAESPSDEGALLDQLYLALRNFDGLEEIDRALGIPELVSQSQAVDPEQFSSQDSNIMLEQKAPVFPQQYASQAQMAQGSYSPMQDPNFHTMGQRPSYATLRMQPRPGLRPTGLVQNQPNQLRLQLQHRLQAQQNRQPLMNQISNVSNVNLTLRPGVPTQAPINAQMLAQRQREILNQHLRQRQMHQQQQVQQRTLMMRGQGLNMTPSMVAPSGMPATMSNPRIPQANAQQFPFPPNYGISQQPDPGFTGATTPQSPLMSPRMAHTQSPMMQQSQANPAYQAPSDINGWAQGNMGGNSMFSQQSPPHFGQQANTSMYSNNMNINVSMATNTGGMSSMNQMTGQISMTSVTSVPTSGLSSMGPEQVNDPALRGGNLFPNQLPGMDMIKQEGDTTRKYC
T3 sequence (Q92731 whole entry): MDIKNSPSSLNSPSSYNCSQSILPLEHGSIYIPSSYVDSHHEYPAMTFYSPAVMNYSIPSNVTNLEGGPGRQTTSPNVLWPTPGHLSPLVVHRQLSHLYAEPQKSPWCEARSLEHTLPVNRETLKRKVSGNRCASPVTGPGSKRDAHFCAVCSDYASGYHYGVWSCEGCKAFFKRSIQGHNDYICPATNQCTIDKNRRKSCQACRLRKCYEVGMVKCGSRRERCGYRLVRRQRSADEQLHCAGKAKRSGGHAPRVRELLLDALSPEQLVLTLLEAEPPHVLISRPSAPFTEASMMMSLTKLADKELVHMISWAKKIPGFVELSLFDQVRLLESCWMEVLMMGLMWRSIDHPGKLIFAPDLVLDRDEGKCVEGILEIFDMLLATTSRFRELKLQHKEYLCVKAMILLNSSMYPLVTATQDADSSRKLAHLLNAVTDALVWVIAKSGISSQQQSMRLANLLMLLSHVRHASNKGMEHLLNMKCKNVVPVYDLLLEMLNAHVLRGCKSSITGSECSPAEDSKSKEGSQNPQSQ
Glyceraldehyde-3-phosphate dehydrogenase, sequence (P04406 whole entry): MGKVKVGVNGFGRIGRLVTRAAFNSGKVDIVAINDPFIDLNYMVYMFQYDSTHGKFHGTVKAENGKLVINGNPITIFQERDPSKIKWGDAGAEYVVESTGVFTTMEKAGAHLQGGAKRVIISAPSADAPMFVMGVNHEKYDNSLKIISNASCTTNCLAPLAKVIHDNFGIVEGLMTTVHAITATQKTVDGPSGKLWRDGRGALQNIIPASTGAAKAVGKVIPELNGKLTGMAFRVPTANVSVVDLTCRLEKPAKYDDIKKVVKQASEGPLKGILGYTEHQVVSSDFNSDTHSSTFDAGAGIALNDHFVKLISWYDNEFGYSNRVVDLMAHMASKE
FAD-linked sulfhydryl oxidase ALR, sequence (P55789 whole entry): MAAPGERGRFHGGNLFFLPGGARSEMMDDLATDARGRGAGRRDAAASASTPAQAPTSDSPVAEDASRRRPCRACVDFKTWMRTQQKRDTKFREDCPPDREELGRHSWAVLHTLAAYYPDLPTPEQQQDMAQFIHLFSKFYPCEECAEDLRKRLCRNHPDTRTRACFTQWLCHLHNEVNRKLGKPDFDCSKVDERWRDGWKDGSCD

Compound: CCC(C(=O)Nc1nnc(-c2ccco2)s1)c1ccccc1 (configuration not stated)
- EC50 [1]: 43.6 µM (not active)
- EC50 [2]: > 79.4 µM (inactive)
- EC50 [3]: > 79.4 µM (not active)

Compound: C=CCn1cnc2c(c1=O)c1nc3ccccc3nc1n2/N=C/c1cc(OC)c(OC)c(OC)c1
- EC50 [4]: 11.2 µM (active)
- IC50 (H9c2): > 79 µM (inactive)
- EC50 [5]: 4.67 µM (active)
- EC50 [6]: 4.4 µM (active)
- EC50 [7]: 5.68 µM (active)

Compound: CN(CC1CCCN(CCc2cccc(C(F)(F)F)c2)C1)C(=O)c1cc2ccccc2o1 (configuration not stated)
- EC50 [8]: 8.57 µM (active)
- EC50 (cells [9]): 0.082 µM (active)
- EC50 [10]: 0.668 µM (active)
- EC50 [11]: < 0.1 µM (active)

Compound: CCN(CC)c1nc2c3c(nc4c(c3c1C#N)CC(=O)N4c1ccc(Cl)cc1)NC(C)=N2
- IC50 [12]: 2.18 µM (active)

Compound: Cn1c(=O)cc(SCC(=O)NCc2cccnc2)c2ccccc21
- EC50 [1]: > 79.4 µM (not active)
- EC50 [2]: > 79.4 µM (inactive)
- EC50 [3]: > 79.4 µM (not active)

Compound: O=C(CCN1CCc2ccccc2C1)c1ccc2c(c1)OCCO2
- EC50 [4]: 9.07 µM (active)
- EC50 [7]: 11.5 µM (active)

Compound: CN(C)C1=C(Cl)C(=O)N(c2cccc(C(F)(F)F)c2)C1=O
- IC50 [13]: > 50 µM (inconclusive)

Compound: O=[N+]([O-])c1cc(C(F)(F)F)ccc1N1CCC(O)CC1
- IC50 (cells [14]): 19.8 µM (active)
- CC50 [15]: 47.2 µM (active)

Compound: CC(C)(C)CC(=O)NC(=S)NCCc1ccccc1
- IC50 (cells [14]): 18.4 µM (active)
- CC50 [15]: 39.4 µM (active)

Compound: Cc1ccc2nc(N(CCCN(C)C)C(=O)c3cc4ccccc4oc3=O)sc2c1
- EC50 [8]: > 60 µM (not active)
- EC50 (cells [9]): 0.116 µM (active)
- EC50 [11]: < 0.1 µM (active)

Compound: Nc1nc(-c2ccco2)c(-c2ccco2)s1
- IC50 [16]: > 66 µM (inactive)
- IC50 (Estrogen receptor beta [17]): 101 µM (not active)
- IC50 (Estrogen receptor beta [18]): > 50 µM (not active)
- IC50 [19]: > 66 µM (inactive)

Compound: COC(=O)C1=C(C)N(Cc2ccccc2)C(=O)N[C@H]1c1cccc(C(F)(F)F)c1
- IC50 (cells [14]): 8.17 µM (active)
- CC50 [15]: 32.9 µM (active)

Compound: O=C(CN1CCN(c2ccc(O)cc2)CC1)Nc1cc([N+](=O)[O-])ccc1Cl
- AC50 [20]: 1.24 µM (active)
- IC50 [12]: 5.07 µM (active)

Compound: O=C(CSc1nnc(SCC(=O)c2ccco2)s1)c1ccco1
- IC50 (Estrogen receptor): 21.2 µM (active)
- IC50 (Estrogen receptor beta [17]): > 109 µM (not active)
- IC50 (Estrogen receptor beta [18]): 6.51 µM (active)

Compound: Cc1ccc(-n2c(S)nnc2-c2ccccc2)cc1
- EC50 [1]: 18.4 µM (not active)
- EC50 [2]: 33.6 µM (inactive)
- EC50 [3]: > 79.4 µM (not active)

Compound: CCOC(=O)Cc1cc(O)n2nc(-c3ccc(C)cc3)cc2n1
- IC50 (Estrogen receptor): 13.9 µM (active)
- IC50 (Estrogen receptor beta [17]): 46.7 µM (not active)
- IC50 (Estrogen receptor beta [18]): 6.5 µM (active)

Compound: Cc1ccc(C2=NC(=O)/C(=C/C=C/c3ccc([N+](=O)[O-])o3)S2)cc1
- IC50 [13]: > 100 µM (not active)

Compound: COc1cc(S(=O)(=O)Nc2cccnc2)c(OC)cc1Cl
- IC50 [13]: > 100 µM (not active)

Compound: COc1cccc(N2C(=O)NC(=O)/C(=C/c3ccc([N+](=O)[O-])s3)C2=O)c1
- IC50 (cells [21]): 27.6 µM (active)
- CC50 [22]: 37.1 µM (active)
- IC50 (Genome polyprotein): 38 µM (active)
- IC50 (Large T antigen): 47.3 µM (active)
- CC50 [15]: 13.8 µM (active)
- EC50 [23]: 34.4 µM (active)
- EC50 [24]: 27.2 µM (active)
